Test results taken from ChEMBL document CHEMBL1148897, “New natural products from the sponge-derived fungus Aspergillus niger” (J Nat Prod, 2004).
The source made the active and inactive calls. The calls are words filed in the database; no cut-off is given here.

How the values were obtained:
Bacillus subtilis [1] = assay: Antimicrobial activity against Bacillus subtilis at 1000 ug/disk after 24 hrs by agar plate diffusion assay; format: functional, organism-based
Artemia salina [2] = assay: Toxicity in Artemia salina at 100 ppm; format: organism-based; settings: in vivo
Artemia salina [3] = assay: Toxicity in Artemia salina at 10 ppm; format: organism-based; settings: in vivo
Staphylococcus aureus [4] = assay: Antimicrobial activity against Staphylococcus aureus at 50 ug/disk after 24 hrs by agar plate diffusion assay; format: functional, organism-based
Candida albicans [5] = assay: Antimicrobial activity against Candida albicans at 50 ug/disk after 24 hrs by agar plate diffusion assay; format: functional, organism-based
Staphylococcus aureus [6] = assay: Antimicrobial activity against Staphylococcus aureus at 100 ug/disk after 24 hrs by agar plate diffusion assay; format: functional, organism-based
Escherichia coli [7] = assay: Antimicrobial activity against Escherichia coli at 100 ug/disk after 24 hrs by agar plate diffusion assay; format: functional, organism-based
Escherichia coli [8] = assay: Antimicrobial activity against Escherichia coli at 50 ug/disk after 24 hrs by agar plate diffusion assay; format: functional, organism-based
Bacillus subtilis [9] = assay: Antimicrobial activity against Bacillus subtilis at 50 ug/disk after 24 hrs by agar plate diffusion assay; format: functional, organism-based
Candida albicans [10] = assay: Antimicrobial activity against Candida albicans at 100 ug/disk after 24 hrs by agar plate diffusion assay; format: functional, organism-based
Spodoptera littoralis [11] = assay: Insecticidal activity against Spodoptera littoralis larvae assessed as reduction of weight at 100 ppm in artificial diet after 7 days relative to control; format: functional; design: scale not given: the % may be the effect or the level left
Spodoptera littoralis [12] = assay: Insecticidal activity against Spodoptera littoralis larvae assessed as survival rate at 100 ppm in artificial diet after 7 days relative to control; format: functional
Cortical neurone [13] = assay: Neuroprotective activity in Wistar rat cortical neuron assessed as reduction of L-glutamic acid-induced intracellular calcium level at 5 ug/mL relative to control; format: functional; design: scale not given: the % may be the effect or the level left
Cortical neurone [14] = assay: Neuroprotective activity in Wistar rat cortical neuron assessed as reduction of L-glutamic acid-induced intracellular calcium level at 1 ug/mL relative to control; format: functional; design: scale not given: the % may be the effect or the level left
Cortical neurone [15] = assay: Neuroprotective activity in Wistar rat cortical neuron assessed as reduction of quisqualic acid-induced intracellular calcium level at 1 ug/mL relative to control; format: functional; design: scale not given: the % may be the effect or the level left
Cortical neurone [16] = assay: Neuroprotective activity in Wistar rat cortical neuron assessed as reduction of quisqualic acid-induced intracellular calcium level at 5 ug/mL relative to control; format: functional; design: scale not given: the % may be the effect or the level left

## C/C=C/c1oc2c(OC)c(O)n(O)c2c(=O)c1O [PYRANONIGRIN B]
Bacillus subtilis [1]
  Activity: inactive
Artemia salina [2]
  Activity: Non-toxic
Artemia salina [3]
  Activity: Non-toxic
Staphylococcus aureus [4]
  Activity: inactive
Candida albicans [5]
  Activity: inactive
Staphylococcus aureus [6]
  Activity: inactive
Escherichia coli [7]
  Activity: inactive
Escherichia coli [8]
  Activity: inactive
Bacillus subtilis [9]
  Activity: inactive
Candida albicans [10]
  Activity: inactive

## C/C=C/c1oc2c(c(=O)c1O)N[C@H](O)C2=O [PYRANONIGRIN A]
Bacillus subtilis [1]
  Activity: inactive
Artemia salina [2]
  Activity: Non-toxic
Artemia salina [3]
  Activity: Non-toxic
Staphylococcus aureus [4]
  Activity: inactive
Candida albicans [5]
  Activity: inactive
Staphylococcus aureus [6]
  Activity: inactive
Spodoptera littoralis [11]
  Activity: 29%
Escherichia coli [7]
  Activity: inactive
Escherichia coli [8]
  Activity: inactive
Bacillus subtilis [9]
  Activity: inactive
Candida albicans [10]
  Activity: inactive
Spodoptera littoralis [12]
  Activity: 85%

## COc1cc(C)c2c(OC)c(-c3c(O)c4c(C)cc(O)cc4oc3=O)c(=O)oc2c1
Bacillus subtilis [1]
  Activity: inactive
Artemia salina [2]
  Activity: Non-toxic
Artemia salina [3]
  Activity: Non-toxic
Staphylococcus aureus [4]
  Activity: inactive
Candida albicans [5]
  Activity: inactive
Staphylococcus aureus [6]
  Activity: inactive
Escherichia coli [7]
  Activity: inactive
Escherichia coli [8]
  Activity: inactive
Bacillus subtilis [9]
  Activity: inactive
Candida albicans [10]
  Activity: inactive

## NC(=O)c1c[nH]c(=O)cc1Cc1ccccc1 [ASPERNIGRIN A]
Bacillus subtilis [1]
  Activity: inactive
Artemia salina [2]
  Activity: Non-toxic
Artemia salina [3]
  Activity: Non-toxic
Staphylococcus aureus [4]
  Activity: inactive
Candida albicans [5]
  Activity: inactive
Staphylococcus aureus [6]
  Activity: inactive
Escherichia coli [7]
  Activity: inactive
Escherichia coli [8]
  Activity: inactive
Bacillus subtilis [9]
  Activity: inactive
Candida albicans [10]
  Activity: inactive

## C/C=C/c1oc2c(O)c(OC)n(O)c2c(=O)c1O [PYRANONIGRIN C]
Bacillus subtilis [1]
  Activity: inactive
Artemia salina [2]
  Activity: Non-toxic
Artemia salina [3]
  Activity: Non-toxic
Staphylococcus aureus [4]
  Activity: inactive
Candida albicans [5]
  Activity: inactive
Staphylococcus aureus [6]
  Activity: inactive
Escherichia coli [7]
  Activity: inactive
Escherichia coli [8]
  Activity: inactive
Bacillus subtilis [9]
  Activity: inactive
Candida albicans [10]
  Activity: inactive

## COc1cc([C@H](Cc2ccccc2)n2cc(C(N)=O)c(Cc3ccccc3)cc2=O)oc(=O)c1 [ASPERNIGRIN B]
Bacillus subtilis [1]
  Activity: inactive
Artemia salina [2]
  Activity: Non-toxic
Artemia salina [3]
  Activity: Non-toxic
Cortical neurone [13]
  Activity: 55%
Staphylococcus aureus [4]
  Activity: inactive
Candida albicans [5]
  Activity: inactive
Cortical neurone [14]
  Activity: 25.5%
Staphylococcus aureus [6]
  Activity: inactive
Cortical neurone [15]
  Activity: 33.6%
Escherichia coli [7]
  Activity: inactive
Escherichia coli [8]
  Activity: inactive
Cortical neurone [16]
  Activity: 23.5%
Bacillus subtilis [9]
  Activity: inactive
Candida albicans [10]
  Activity: inactive
